In ChEMBL document CHEMBL1140860, “Synthesis and evaluation of dihydroartemisinin and dihydroartemisitene acetal dimers showing anticancer and antiprotozoal activity” (Bioorg Med Chem, 2009):

How the values were obtained:
UACC-62 = experiment: Growth inhibition of human UACC62 cells after 48 hrs by sulforhodamine B assay; assay type: functional; conditions: UACC-62, 48 h
SF-295 = experiment: Growth inhibition of human SF295 cells after 48 hrs by sulforhodamine B assay; assay type: functional; conditions: SF-295, 48 h
NCI-H226 = experiment: Growth inhibition of human NCI-H226 cells after 48 hrs by sulforhodamine B assay; assay type: functional; conditions: NCI-H226, 48 h
NCI-H522 = experiment: Growth inhibition of human NCI-H522 cells after 48 hrs by sulforhodamine B assay; assay type: functional; conditions: NCI-H522, 48 h
RXF 393 = experiment: Growth inhibition of human RXF393 cells after 48 hrs by sulforhodamine B assay; assay type: functional; conditions: RXF 393, 48 h
CCRF-CEM = experiment: Growth inhibition of human CCRF-CEM cells after 48 hrs by sulforhodamine B assay; assay type: functional
SF-539 = experiment: Growth inhibition of human SF539 cells after 48 hrs by sulforhodamine B assay; assay type: functional; conditions: SF-539, 48 h
EKVX = experiment: Growth inhibition of human EKVX cells after 48 hrs by sulforhodamine B assay; assay type: functional
786-0 = experiment: Growth inhibition of human 786-0 cells after 48 hrs by sulforhodamine B assay; assay type: functional; conditions: 786-0, 48 h
MOLT-4 = experiment: Growth inhibition of human MOLT4 cells after 48 hrs by sulforhodamine B assay; assay type: functional; conditions: MOLT-4, 48 h
PC-3 = experiment: Growth inhibition of human PC3 cells after 48 hrs by sulforhodamine B assay; assay type: functional; conditions: PC-3, 48 h
A498 = experiment: Growth inhibition of human A498 cells after 48 hrs by sulforhodamine B assay; assay type: functional; conditions: A498, 48 h
Plasmodium falciparum [1] = experiment: Antimalarial activity after 72 hrs against chloroquine-sensitive Plasmodium falciparum D6 infected in erythrocytes by LDH assay; assay type: functional, organism-based; conditions: D6, 72 h
NCI-H460 = experiment: Growth inhibition of human NCI-H460 cells after 48 hrs by sulforhodamine B assay; assay type: functional; conditions: NCI-H460, 48 h
OVCAR-5 = experiment: Growth inhibition of human OVCAR5 cells after 48 hrs by sulforhodamine B assay; assay type: functional; conditions: OVCAR-5, 48 h
K562 = experiment: Growth inhibition of human K562 cells after 48 hrs by sulforhodamine B assay; assay type: functional; conditions: K562, 48 h
Malme-3M = experiment: Growth inhibition of human MALME-3M cells after 48 hrs by sulforhodamine B assay; assay type: functional
NCI-H23 = experiment: Growth inhibition of human NCI-H23 cells after 48 hrs by sulforhodamine B assay; assay type: functional; conditions: NCI-H23, 48 h
UO-31 = experiment: Growth inhibition of human UO31 cells after 48 hrs by sulforhodamine B assay; assay type: functional; conditions: UO-31, 48 h
Plasmodium falciparum [2] = experiment: Antimalarial activity after 72 hrs against chloroquine-resistant Plasmodium falciparum W2 infected erythrocytes by LDH assay; assay type: functional, organism-based; conditions: W2, 72 h
SK-MEL-5 = experiment: Growth inhibition of human SK-MEL-5 cells after 48 hrs by sulforhodamine B assay; assay type: functional; conditions: SK-MEL-5, 48 h
NCI-H322M = experiment: Growth inhibition of human NCI-H322M cells after 48 hrs by sulforhodamine B assay; assay type: functional
HCT-116 = experiment: Growth inhibition of human HCT116 cells after 48 hrs by sulforhodamine B assay; assay type: functional; conditions: HCT-116, 48 h
CAKI-1 = experiment: Growth inhibition of human Caki1 cells after 48 hrs by sulforhodamine B assay; assay type: functional; conditions: CAKI-1, 48 h
OVCAR-3 = experiment: Growth inhibition of human OVCAR-3 cells after 48 hrs by sulforhodamine B assay; assay type: functional; conditions: OVCAR-3, 48 h
TK-10 = experiment: Growth inhibition of human TK10 cells after 48 hrs by sulforhodamine B assay; assay type: functional; conditions: TK-10, 48 h
MDA-MB-231 = experiment: Growth inhibition of human MDA-MB-231 cells after 48 hrs by sulforhodamine B assay; assay type: functional; conditions: MDA-MB-231, 48 h
SW-620 = experiment: Growth inhibition of human SW620 cells after 48 hrs by sulforhodamine B assay; assay type: functional; conditions: SW-620, 48 h
SK-OV-3 = experiment: Growth inhibition of human SKOV3 cells after 48 hrs by sulforhodamine B assay; assay type: functional; conditions: SK-OV-3, 48 h
[3] = Growth inhibition of human Hs 578T cells after 48 hrs by sulforhodamine B assay; assay type: functional
HL-60 = experiment: Growth inhibition of human HL-60(TB) cells after 48 hrs by sulforhodamine B assay; assay type: functional; conditions: HL-60, 48 h
UACC-257 = experiment: Growth inhibition of human UACC257 cells after 48 hrs by sulforhodamine B assay; assay type: functional; conditions: UACC-257, 48 h

Compound: C[C@H]1[C@@H](O[C@@H](C)CO[C@H]2O[C@@H]3O[C@@]4(C)CC[C@H]5[C@H](C)CC[C@@H]([C@H]2C)[C@@]35OO4)O[C@@H]2O[C@@]3(C)CC[C@H]4[C@H](C)CC[C@@H]1[C@@]24OO3
- GI50 (UACC-62): 16 nM
- GI50 (SF-295): 92 nM
- GI50 (NCI-H226): 226 nM
- GI50 (NCI-H522): 54 nM
- GI50 (RXF 393): < 10 nM
- GI50 (CCRF-CEM): 18 nM
- GI50 (SF-539): 39 nM
- GI50 (EKVX): 37 nM
- GI50 (786-0): 48 nM
- GI50 (MOLT-4): < 10 nM
- GI50 (PC-3): 9 nM
- GI50 (A498): 409 nM
- IC50 (Plasmodium falciparum [1]): 3800 nM
- GI50 (NCI-H460): 27 nM
- GI50 (OVCAR-5): 27 nM
- GI50 (K562): < 10 nM
- GI50 (Malme-3M): 37 nM
- GI50 (NCI-H23): 37 nM
- GI50 (UO-31): 31 nM
- IC50 (Plasmodium falciparum [2]): 5100 nM
- GI50 (SK-MEL-5): 29 nM
- GI50 (NCI-H322M): 88 nM
- GI50 (HCT-116): < 10 nM
- GI50 (CAKI-1): 376 nM
- GI50 (OVCAR-3): 46 nM
- GI50 (TK-10): 17900 nM
- GI50 (MDA-MB-231): 80 nM
- GI50 (SW-620): < 10 nM
- GI50 (SK-OV-3): 23600 nM
- GI50 [3]: 21 nM
- GI50 (HL-60): < 10 nM
- GI50 (UACC-257): 21 nM
